The source of these data is patent US20180332790A1 (priority 2015, published 2018).

For assay [1], the system named is maize. The note with it: in vivo.
In assay [2] the test system is maize. Particulars: in vivo. This is another data set of the same source.

Where “and” joins values, the source holds several entries; their conditions need not be identical. Equal entries are not always repeated. Entries after “also recorded” stand apart in the source; their conditions may differ.

As to `CCCCCCCC/C=C\CCCCCCCC(=O)O[C@H](COC(=O)CCCCCCCCCCCCCCCCC)COP(=O)(O)OCCN` [1-stearyl-2-oleoyl-sn-phosphatidylethanolamine], the “de novo haploid induction (in words)” value in assay [1] is given as “haploid inducing compound”.
The same measure, in the same setting: next, `CCCCC/C=C\C/C=C\C/C=C\C/C=C\CCCC(=O)OC` [AAME, arachidonic acid methyl ester]: “triggered de novo haploid induction”.
`CCCCCCCCCCCCCCCCCC(=O)OC[C@H](COP(=O)([O-])OCC[N+](C)(C)C)OC(=O)CCCCCCCCCCCCCCCCC` [DSPC, 1,2-distearoyl-sn-glycero-3-phosphatidyl choline]: in assay [1], the “de novo haploid formation (in words)” value is reported as “achieved de novo haploid formation” and the “de novo haploid induction (in words)” value is “triggered de novo haploid induction; also recorded: highly active”.
Consider `CCCCC/C=C\C/C=C\CCCCCCCC(=O)O` [LLA, linoleic acid], for which, in assay [2], the “decrease in embryo abortion frequency compared to control buffer” value stood at 2.9%; the “effect on embryo abortion and kernel formation in haploid inducer crosses (in words)” value was “reduces the rate of embryo abortion and increases the rate of kernel formation; also recorded: increase the rate of viable kernel formation by reducing fertilization failure and embryo abortion”; the “effect on haploid induction rate / number of haploids in haploid inducer crosses (in words)” value is “boosted the haploid induction rate; also recorded: increase the number of haploids formed and/or the rate of haploid formation”; the “increase in haploid induction rate compared to control buffer” value came out at 1.5%. Moreover, in assay [2], the “increase in haploids recovered per ear compared to control buffer” value stood at 7.6 haploids per ear and the “increase in number of kernels per ear compared to control buffer” value is 41 per ear. The “de novo haploid induction (in words)” value in assay [1] is on record as “triggered de novo haploid induction”.
As for `CCCCC/C=C\C/C=C\CCCCCCCC(=O)OCC` [LLAEE, linoleic acid ethyl ester], in assay [2], the “AVERAGE/EAR HIR” value is 13.0% and 15.4%; the AVERAGE/EAR haploids was 23.1 and 27.9; the “AVERAGE/EAR k. a. rate” value was 29.9% and 33.0%; the “AVERAGE/EAR k. a. rate, vs control” value was −3.7% and −2.9%. Besides, in assay [2], the AVERAGE/EAR kernels is 194.1 and 194.6; the “AVERAGE/EAR kernels, vs control” value was “+43.3”; the “decrease in embryo abortion frequency compared to control buffer” value worked out at 3.7%; the “effect on embryo abortion and kernel formation in haploid inducer crosses (in words)” value is “reduces the rate of embryo abortion and increases the rate of kernel formation; also recorded: increase the rate of viable kernel formation by reducing fertilization failure and embryo abortion”. Also, in assay [2], the “effect on haploid induction rate / number of haploids in haploid inducer crosses (in words)” value is listed as “boosted the haploid induction rate; also recorded: increase the number of haploids formed and/or the rate of haploid formation”, the “increase in haploid induction rate compared to control buffer” value was 2.4%, the “increase in haploids recovered per ear compared to control buffer” value is given as “over 8 haploids per ear” and the “increase in number of kernels per ear compared to control buffer” value is given as “over 43 per ear”.
Turning to `CCCCCCCC/C=C\CCCCCCCC(=O)OCC` [OAEE, oleic acid ethyl ester], the “de novo haploid induction (in words)” value in assay [1] was “triggered de novo haploid induction”.
On the same count and under the same terms, next, `CCCCCCCCCCCCCCCC(=O)OCC` [PAEE, palmitic acid ethyl ester]: “induces haploids”.
The same measure, in the same setting: as for `CCCCC/C=C\C/C=C\C/C=C\C/C=C\CCCC(=O)O` [arachidonic acid], the entry is “triggered”.
Still for that read-out and setting: as for `CC1=C(CC/C(C)=C/CCC2=CC[C@H](C3=CC(=O)O[C@H]3O)O[C@H]2O)C(C)(C)CCC1` [manoalide, reference compound], the entry is “triggered de novo haploid induction; also recorded: able to induce haploid formation de novo”.
